Test results from patent US10709706B2, “Nuclear transport modulators and uses thereof” (Karyopharm Therapeutics Inc., priority 2015, dated 2020).

Columns and labels:
Type in all cases: cell-based
MM1S cells = test: MTT cell proliferation assay, MM1S cells; conditions: Homo sapiens, MM1.S, MM1S multiple myeloma cells, approximately 64-72 hours, 1 nM to 30 μM
Description: (§1) The MTT cell proliferation assay was used to study the cytotoxic properties of the compounds. The assay was performed according to the method described by Roche Molecular Biochemicals, with minor modifications. The assay is based on the cleavage of the tetrazolium salt, MTT, in the presence of an electron-coupling reagent. The water-insoluble formazan salt produced must be solubilized in an additional step. Cells grown in a 96-well tissue culture plate were incubated with the MTT solution for approximately 4 hours. After this incubation period, a water-insoluble formazan dye formed. After solubilization, the formazan dye was quantitated using a scanning multi-well spectrophotometer (ELISA reader). […] The cells were seeded at 5,000-10,000 cells in each well of 96-well plate in 100 μL of fresh culture medium and were allowed to attach overnight. The stock solutions of the compounds were diluted in 100 μL cell culture medium to obtain eight concentrations of each test compound, ranging from 1 nM to 30 μM. […] All optical densities were measured at 490 nm using a Vmax Kinetic Microplate Reader (Molecular Devices). In most cases, the assay was performed in duplicate and the results were presented as a mean percent inhibition to the negative control±SE. The following formula was used to calculate the percent of inhibition: Inhibition (%)=(1−(ODo/OD))×100.
(§2) The compounds were tested against Z138, MM1S and 3T3 cells. The Z138 cell line is a mature B-cell acute lymphoblastic leukemia cell line derived from a patient with chronic lymphocytic leukemia. The MM1S cell line was established from the peripheral blood of a human multiple myeloma patient. 3T3 cells are standard fibroblast cells; they were originally isolated from Swiss mouse embryo tissue.

Z138 cells = test: MTT cell proliferation assay, Z138 cells; conditions: Homo sapiens, Z-138, approximately 64-72 hours, 1 nM to 30 μM
Description: as §1, §2

3T3 cells = test: MTT cell proliferation assay, 3T3 cells; conditions: Mus musculus, NIH3T3, 3T3 fibroblast cells, approximately 64-72 hours, 1 nM to 30 μM
Description: as §1, §2

SMILES | IC50 (MM1S cells) | IC50 (Z138 cells) | IC50 (3T3 cells)
CC1(C)CN(S(=O)(=O)c2cccc(/C(=C\c3ccnc(-c4cc(C(F)(F)F)cc(C(F)(F)F)c4)n3)C(N)=O)c2)CCO1 [Compound 164, (E)-3-(2-(3,5-bis(trifluoromethyl)phenyl)pyrimidin-4-yl)-2-(3-((2,2-dimethylmorpholino)sulfonyl)phenyl)acrylamide] | 0.1 to 5 µM | > 30 µM | > 30 µM
N#Cc1ccc(/C(=C\c2ccnc(-c3cc(C(F)(F)F)cc(C(F)(F)F)c3)n2)C(N)=O)s1 [Compound 135, (Z)-3-(2-(3,5-bis(trifluoromethyl)phenyl)pyrimidin-4-yl)-2-(5-cyanothiophen-2-yl)acrylamide] | < 0.1 µM | 0.1 to 5 µM | 5 to 30 µM
NC(=O)/C(=C/c1ccnc(-c2cc(C(F)(F)F)cc(C(F)(F)F)c2)n1)c1ccc(S(=O)(=O)N2CCCCC2)cc1 [Compound 156, (E)-3-(2-(3,5-bis(trifluoromethyl)phenyl)pyrimidin-4-yl)-2-(4-(piperidin-1-ylsulfonyl)phenyl)acrylamide] | > 30 µM | > 30 µM | > 30 µM
N#Cc1ncc(/C(=C\c2ccnc(-c3cc(C(F)(F)F)cc(C(F)(F)F)c3)n2)C(N)=O)cn1 [Compound 125, (E)-3-(2-(3,5-bis(trifluoromethyl)phenyl)pyrimidin-4-yl)-2-(2-cyanopyrimidin-5-yl)acrylamide] | < 0.1 µM | < 0.1 µM | > 30 µM
NC(=O)/C(=C/c1ccnc(-c2cc(C(F)(F)F)cc(C(F)(F)F)c2)n1)c1cccc(S(=O)(=O)N2CCC(C(F)(F)F)CC2)c1 [Compound 160, (E)-3-(2-(3,5-bis(trifluoromethyl)phenyl)pyrimidin-4-yl)-2-(3-((4-(trifluoromethyl)piperidin-1-yl)sulfonyl)phenyl)acrylamide] | > 30 µM | > 30 µM | > 30 µM
CCOC(=O)/C=C/c1cncc(-c2cc(C(F)(F)F)cc(C(F)(F)F)c2)n1 [Compound 101, ethyl (E)-3-(6-(3,5-bis(trifluoromethyl)phenyl)pyrazin-2-yl)acrylate] | > 30 µM | > 30 µM | > 30 µM
NC(=O)/C(=C/c1ccnc(-c2cc(C(F)(F)F)cc(C(F)(F)F)c2)n1)c1csc2ccccc12 [Compound 123, (E)-2-(benzo[b]thiophen-3-yl)-3-(2-(3,5-bis(trifluoromethyl)phenyl)pyrimidin-4-yl)acrylamide] | > 30 µM | > 30 µM | > 30 µM
NC(=O)/C(=C/c1ccnc(-c2cc(C(F)(F)F)cc(C(F)(F)F)c2)n1)c1ccccc1 [Compound 120, (E)-3-(2-(3,5-bis(trifluoromethyl)phenyl)pyrimidin-4-yl)-2-phenylacrylamide] | > 30 µM | > 30 µM | > 30 µM
NC(=O)/C(=C/c1ccnc(-c2cc(C(F)(F)F)cc(C(F)(F)F)c2)n1)c1cccc(S(=O)(=O)N2CC(F)(F)C2)c1 [Compound 139, (E)-3-(2-(3,5-bis(trifluoromethyl)phenyl)pyrimidin-4-yl)-2-(3-((3,3-difluoroazetidin-1-yl)sulfonyl)phenyl)acrylamide] | > 30 µM | > 30 µM | –
NC(=O)/C(=C/c1ccnc(-c2cc(C(F)(F)F)cc(C(F)(F)F)c2)n1)c1ccc(S(=O)(=O)N2CCC(F)(F)C2)cc1 [Compound 157, (E)-3-(2-(3,5-bis(trifluoromethyl)phenyl)pyrimidin-4-yl)-2-(4-((3,3-difluoropyrrolidin-1-yl)sulfonyl)phenyl)acrylamide] | 0.1 to 5 µM | 0.1 to 5 µM | > 30 µM
Cc1ccc(/C(=C\c2ccnc(-c3cc(C(F)(F)F)cc(C(F)(F)F)c3)n2)C(N)=O)cc1F [Compound 118, (E)-3-(2-(3,5-bis(trifluoromethyl)phenyl)pyrimidin-4-yl)-2-(3-fluoro-4-methylphenyl)acrylamide] | > 30 µM | > 30 µM | > 30 µM
NC(=O)/C(=C\c1cncc(-c2cc(C(F)(F)F)cc(C(F)(F)F)c2)n1)c1cncnc1 [Compound 104, (Z)-3-(6-(3,5-bis(trifluoromethyl)phenyl)pyrazin-2-yl)-2-(pyrimidin-5-yl)acrylamide] | > 30 µM | > 30 µM | > 30 µM
NC(=O)/C(=C/c1ccnc(-c2cc(C(F)(F)F)cc(C(F)(F)F)c2)n1)c1ccncc1 [Compound 148, (E)-3-(2-(3,5-bis(trifluoromethyl)phenyl)pyrimidin-4-yl)-2-(pyridin-4-yl)acrylamide] | 0.1 to 5 µM | 0.1 to 5 µM | > 30 µM
NC(=O)/C(=C/c1ccnc(-c2cc(C(F)(F)F)cc(C(F)(F)F)c2)n1)c1ccc(S(=O)(=O)N2CC(F)C2)cc1 [Compound 126, (E)-3-(2-(3,5-bis(trifluoromethyl)phenyl)pyrimidin-4-yl)-2-(4-((3-fluoroazetidin-1-yl)sulfonyl)phenyl)acrylamide] | > 30 µM | > 30 µM | > 30 µM
Cc1ccc(F)cc1/C(=C\c1ccnc(-c2cc(C(F)(F)F)cc(C(F)(F)F)c2)n1)C(N)=O [Compound 161, (E)-3-(2-(3,5-bis(trifluoromethyl)phenyl)pyrimidin-4-yl)-2-(5-fluoro-2-methylphenyl)acrylamide] | > 30 µM | > 30 µM | > 30 µM
NC(=O)/C(=C/c1ccnc(-c2cc(C(F)(F)F)cc(C(F)(F)F)c2)n1)c1cccc(F)n1 [Compound 150, (E)-3-(2-(3,5-bis(trifluoromethyl)phenyl)pyrimidin-4-yl)-2-(6-fluoropyridin-2-yl)acrylamide] | 0.1 to 5 µM | 0.1 to 5 µM | > 30 µM
NC(=O)/C(=C/c1ccnc(-c2cc(C(F)(F)F)cc(C(F)(F)F)c2)n1)c1cccc(Cl)c1Cl [Compound 141, (E)-3-(2-(3,5-bis(trifluoromethyl)phenyl)pyrimidin-4-yl)-2-(2,3-dichlorophenyl)acrylamide] | > 30 µM | > 30 µM | > 30 µM
NC(=O)/C(Br)=C/c1cncc(-c2cc(C(F)(F)F)cc(C(F)(F)F)c2)n1 [Compound 103, (Z)-3-(6-(3,5-bis(trifluoromethyl)phenyl)pyrazin-2-yl)-2-bromoacrylamide] | 0.1 to 5 µM | 0.1 to 5 µM | > 30 µM
NC(=O)/C(=C/c1nccc(-c2cc(C(F)(F)F)cc(C(F)(F)F)c2)n1)c1cncnc1 [Compound 113, (E)-3-(4-(3,5-bis(trifluoromethyl)phenyl)pyrimidin-2-yl)-2-(pyrimidin-5-yl)acrylamide] | > 30 µM | > 30 µM | > 30 µM
COC(=O)/C(Br)=C\c1nccc(-c2cc(C(F)(F)F)cc(C(F)(F)F)c2)n1 [Compound 108, methyl (E)-3-(4-(3,5-bis(trifluoromethyl)phenyl)pyrimidin-2-yl)-2-bromoacrylate] | 5 to 30 µM | 5 to 30 µM | > 30 µM
NC(=O)/C(=C/c1ccnc(-c2cc(C(F)(F)F)cc(C(F)(F)F)c2)n1)c1ccc(S(=O)(=O)N2CC(F)(F)C2)cc1 [Compound 130, (E)-3-(2-(3,5-bis(trifluoromethyl)phenyl)pyrimidin-4-yl)-2-(4-((3,3-difluoroazetidin-1-yl)sulfonyl)phenyl)acrylamide] | 5 to 30 µM | > 30 µM | > 30 µM
CS(=O)(=O)c1ccc(/C(=C\c2ccnc(-c3cc(C(F)(F)F)cc(C(F)(F)F)c3)n2)C(N)=O)cc1 [Compound 127, (E)-3-(2-(3,5-bis(trifluoromethyl)phenyl)pyrimidin-4-yl)-2-(4-(methylsulfonyl)phenyl)acrylamide] | > 30 µM | > 30 µM | > 30 µM
NC(=O)/C(=C/c1ccnc(-c2cc(C(F)(F)F)cc(C(F)(F)F)c2)n1)c1ccc(S(=O)(=O)N2CCC(F)(F)CC2)cc1 [Compound 159, (E)-3-(2-(3,5-bis(trifluoromethyl)phenyl)pyrimidin-4-yl)-2-(4-((4,4-difluoropiperidin-1-yl)sulfonyl)phenyl)acrylamide] | 5 to 30 µM | 0.1 to 5 µM | > 30 µM
N#Cc1ccccc1/C(=C\c1ccnc(-c2cc(C(F)(F)F)cc(C(F)(F)F)c2)n1)C(N)=O [Compound 154, (E)-3-(2-(3,5-bis(trifluoromethyl)phenyl)pyrimidin-4-yl)-2-(2-cyanophenyl)acrylamide] | 0.1 to 5 µM | > 30 µM | –
NC(=O)/C(=C/c1ccnc(-c2cc(C(F)(F)F)cc(C(F)(F)F)c2)n1)c1cccc(S(=O)(=O)N2CCC(F)(F)CC2)c1 [Compound 138, (E)-3-(2-(3,5-bis(trifluoromethyl)phenyl)pyrimidin-4-yl)-2-(3-((4,4-difluoropiperidin-1-yl)sulfonyl)phenyl)acrylamide] | – | 0.1 to 5 µM | > 30 µM
NC(=O)/C(=C/c1ccnc(-c2cc(C(F)(F)F)cc(C(F)(F)F)c2)n1)c1ccc(Cl)c(F)c1 [Compound 133, (E)-3-(2-(3,5-bis(trifluoromethyl)phenyl)pyrimidin-4-yl)-2-(4-chloro-3-fluorophenyl)acrylamide] | – | < 0.1 µM | > 30 µM
